Measured values from patent US6914045B2, “Glycopeptide antibiotics” (Wyeth Holdings Corporation, priority 2001, dated 2005).
In brackets after ≈: the same amount, converted by molar mass.

Key:
Escherichia coli = experiment: in vitro antibacterial evaluation, MIC by broth dilution; assay type: cell-based; conditions: 18 hours at 35° C.
Procedure, shortened: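 MIC is the lowest antibiotic concentration (tested 64-0.06 μg/mL) preventing growth of a 5×10^5 CFU/mL inoculum. Determined by broth dilution in Mueller-Hinton II medium following NCCLS standard M7-A2.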

Enterococcus sp. = experiment: as above; assay type: cell-based; conditions: broth dilution, 18 hours at 35° C.
Procedure, shortened: (§1)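 MIC, the lowest antibiotic concentration preventing growth, was read across 64-0.06 μg/mL with 5×10^5 CFU/mL inoculum. Method followed NCCLS M7-A2 broth dilution using Mueller-Hinton II; Gram-positive strains covered recent methicillin-, penicillin- and/or vancomycin-resistant clinical isolates.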

Staphylococcus sp. = experiment: as above; assay type: cell-based; conditions: broth dilution, 18 hours at 35° C.
Procedure, shortened: as §1

Streptococcus sp. = experiment: as above; assay type: cell-based; conditions: broth dilution, 18 hours at 35° C.
Procedure, shortened: as §1

[1] = anatomic pathology (histopathology of heart and kidney) in mice; assay type: in vivo; conditions: CD-1 mice, 20 mg/kg intravenously daily for 9 days, necropsy day 10, microscopic histopathology
Method: Samples of tissues from necropsied mice were formalin-fixed, paraffin-embedded, sectioned, stained with hematoxylin and eosin, and examined microscopically. Histopathologic findings were recorded. These findings were subjectively graded on a scale corresponding to slight, mild, moderate, marked and severe as compared to untreated controls.

[2] = clinical pathology (serum clinical chemistry) in mice; assay type: in vivo; conditions: CD-1 mice, 20 mg/kg intravenously daily for 9 days, sera day 10
Method: 20-day-old CD-1 mice were divided into a vehicle control group (5 mice) and a treatment group (5 mice). Samples of glycopeptide antibiotics were administered at 20 mg/kg intravenously daily for 9 days.

## CC(c1ccccc1)C1NC(=O)CNC(=O)C(CO)NC(=O)C(C(O)C2CN(Cc3ccccc3-c3ccccc3)C(=N)N2C2OC(CO)C(O)C(O)C2O)NC(=O)C(C(O)C2CNC(=N)N2)NC(=O)C(Cc2ccc(OC3OC(CO)C(OC4OC(CO)C(O)C(O)C4O)C(O)C3O)cc2)NC1=O (centres unmarked) [Example 65]
Escherichia coli
  MIC Escherichia coli (ATCC 25922): >128 µg/mL
  MIC Escherichia coli (GC 4559): >128 µg/mL
  MIC Escherichia coli (GC 4560): 32 µg/mL (≈ 21.9 µM)
Enterococcus sp.; Enterococcus avium (GC 4558)
  MIC Enterococcus avium (GC 4558): 128 µg/mL (≈ 87.6 µM)
Enterococcus sp.; Enterococcus faecalis (ATCC 29212)
  MIC Enterococcus faecalis (ATCC 29212): >128 µg/mL
Enterococcus sp.; Enterococcus faecalis (GC 4552)
  MIC Enterococcus faecalis (GC 4552): >128 µg/mL
Enterococcus sp.; Enterococcus faecalis (GC 4553)
  MIC Enterococcus faecalis (GC 4553): 128 µg/mL (≈ 87.6 µM)
Enterococcus sp.; Enterococcus faecalis (GC 4554)
  MIC Enterococcus faecalis (GC 4554): >128 µg/mL
Enterococcus sp.; Enterococcus faecalis (GC 6189)
  MIC Enterococcus faecalis (GC 6189): >128 µg/mL
Enterococcus sp.; Enterococcus faecium (GC 2243)
  MIC Enterococcus faecium (GC 2243): 128 µg/mL (≈ 87.6 µM)
Enterococcus sp.; Enterococcus faecium (GC 4556)
  MIC Enterococcus faecium (GC 4556): >128 µg/mL
Enterococcus sp.; Enterococcus faecium (GC 4557)
  MIC Enterococcus faecium (GC 4557): 128 µg/mL (≈ 87.6 µM)
Enterococcus sp.
  MIC Enterococcus avium (GC 4558): 128 µg/mL (≈ 87.6 µM)
  MIC Enterococcus faecalis (ATCC 29212): >128 µg/mL
  MIC Enterococcus faecalis (GC 2242): >128 µg/mL
  MIC Enterococcus faecalis (GC 2691): >128 µg/mL
  MIC Enterococcus faecalis (GC 3059): >128 µg/mL
  MIC Enterococcus faecalis (GC 4552): >128 µg/mL
  MIC Enterococcus faecalis (GC 4553): 128 µg/mL (≈ 87.6 µM)
  MIC Enterococcus faecalis (GC 4554): >128 µg/mL
  MIC Enterococcus faecalis (GC 6189): >128 µg/mL
  MIC Enterococcus faecium (GC 2243): 128 µg/mL (≈ 87.6 µM)
  MIC Enterococcus faecium (GC 4556): >128 µg/mL
  MIC Enterococcus faecium (GC 4557): 128 µg/mL (≈ 87.6 µM)
Enterococcus sp.; strain GC 2242
  MIC Enterococcus faecalis (GC 2242): >128 µg/mL
Enterococcus sp.; strain GC 2691
  MIC Enterococcus faecalis (GC 2691): >128 µg/mL
Enterococcus sp.; strain GC 3059
  MIC Enterococcus faecalis (GC 3059): >128 µg/mL
Staphylococcus sp.; strain ATCC 29213
  MIC Staphylococcus aureus (ATCC 29213): >128 µg/mL
Staphylococcus sp.; strain GC 1131
  MIC Staphylococcus aureus (GC 1131): >128 µg/mL
Staphylococcus sp.; strain GC 3051
  MIC Staphylococcus aureus (GC 3051): >128 µg/mL
Staphylococcus sp.; strain GC 3053
  MIC Staphylococcus aureus (GC 3053): >128 µg/mL
Staphylococcus sp.; strain GC 4541
  MIC Staphylococcus aureus (GC 4541): >128 µg/mL
Staphylococcus sp.; strain GC 4542
  MIC Staphylococcus aureus (GC 4542): >128 µg/mL
Staphylococcus sp.; strain GC 4543
  MIC Staphylococcus aureus-SMITH (GC 4543): >128 µg/mL
Staphylococcus sp.; strain GC 4544
  MIC Staphylococcus aureus (GC 4544): >128 µg/mL
Staphylococcus sp.; strain GC 4545
  MIC Staphylococcus aureus (GC 4545): >128 µg/mL
Staphylococcus sp.; strain GC 4546
  MIC Staphylococcus haemolyticus (GC 4546): >128 µg/mL
Staphylococcus sp.; strain GC 4547
  MIC Coagulase Negative Staphylococcus (GC 4547): >128 µg/mL
Staphylococcus sp.; strain GC 4548
  MIC Coagulase Negative Staphylococcus (GC 4548): >128 µg/mL
Staphylococcus sp.; strain GC 4549
  MIC Coagulase Negative Staphylococcus (GC 4549): >128 µg/mL
Staphylococcus sp.; strain GC 4551
  MIC Coagulase Negative Staphylococcus (GC 4551): >128 µg/mL
Streptococcus sp.
  MIC Streptococcus agalactiae (GC 4564): >128 µg/mL
  MIC Streptococcus pneumoniae (ATCC 6301): 128 µg/mL (≈ 87.6 µM)
  MIC Streptococcus pneumoniae (GC 1894): 128 µg/mL (≈ 87.6 µM)
  MIC Streptococcus pneumoniae (GC 4565): 128 µg/mL (≈ 87.6 µM)
  MIC Streptococcus pyogenes (GC 4563): 128 µg/mL (≈ 87.6 µM)
Streptococcus sp.; strain ATCC 6301
  MIC Streptococcus pneumoniae (ATCC 6301): 128 µg/mL (≈ 87.6 µM)
Streptococcus sp.; strain GC 1894
  MIC Streptococcus pneumoniae (GC 1894): 128 µg/mL (≈ 87.6 µM)
Streptococcus sp.; strain GC 4563
  MIC Streptococcus pyogenes (GC 4563): 128 µg/mL (≈ 87.6 µM)
Streptococcus sp.; strain GC 4564
  MIC Streptococcus agalactiae (GC 4564): >128 µg/mL
Streptococcus sp.; strain GC 4565
  MIC Streptococcus pneumoniae (GC 4565): 128 µg/mL (≈ 87.6 µM)
[1]
  Anatomical Pathology (Day 10), Heart: 0
  Anatomical Pathology (Day 10), Kidney: +++
[2]
  Clinical Chemistry (Day 10) % of Control, ALT: +196%
  Clinical Chemistry (Day 10) % of Control, AST: +182%
  Clinical Chemistry (Day 10) % of Control, BUN: +161%
